Data as given in patent US20220225639A1, “IMMUNE-STIMULATING COMPOSITIONS FOR AQUACULTURE SPECIES” (MIREXUS BIOTECHNOLOGIES INC., priority 2019, published 2022).

System: rainbow trout gut cells (RT-gut)
Experiment: Uptake and intracellular stability of fluorescently labelled poly IC (fluorescent microscopy)
Assay type: cell-based
Details: 1 ug/ml, 20 degree treatment, 4 hours
Procedure: Per Example 7, low molecular weight poly:IC was labelled with a fluorescent dye, then left as “free” poly:IC or coupled with Cat-PhG (0.38) at a 1:1 (w/w) ratio. Free poly:IC or PhG coupled poly:IC was added to RT-gut cells at a concentration of 1 ug/ml and incubated at 4° C. or 20° C. for 4 hours. Cells were imaged via fluorescent microscopy, and average intracellular fluorescence intensity was measured from 5 randomly selected cells.
Low molecular weight poly IC was labelled with the Ulysis AlexaFluor 546 labelling kit (Invitrogen), then left as “free” poly IC or couple with cationic PhG (0.38) at a 1:1 (w/w) ratio. Free poly IC or PhG coupled poly IC was added to RT-gut cells at a concentration of 1 ug/ml and incubated at 4° C. or 20° C. for 4 hours. Cells were imaged via fluorescent microscopy, and average intracellular fluorescence intensity was measured from 5 randomly selected cells.

Substance: polyinosinic:polycytidylic acid [free poly IC]
- intracellular fluorescence: no fluorescence was detected
